The experiment deals with T1, GPR35 (Homo sapiens, UniProt Q9HC97).
T1 construct: host or cells: PathHunter GPR35 cell line
The experiment in a line: GPR35 activation, PathHunter β-Arrestin assay (DiscoverX). The experiment is classed as cell-based. The following applies: β-arrestin recruitment; for activation of GPR35 (result in words): highest concentration tested 10 mM; for pEC50: β-Gal enzyme fragment complementation, chemiluminescence, highest concentration 10 mM, 3× dilutions, duplicate. As for the experimental part:
Six human milk oligosaccharides (LNnT, LNT, 2′-FL, DFL, 6′-SL and 3′-SL) were screened for their ability to activate the GPR35 receptor in an in vitro assay. The screening was conducted by DiscoverX (Fremont, Calif., USA) using the PathHunter β-Arresin assay. This assay monitored the activation of GPR35 expressed in cultured cells, using Enzyme Fragment Complementation with β-galactosidase (β-Gal) as the functional reporter. […] EA was fused to […]. When the GPR35 is activated and β-Arrestin is recruited to the receptor, PK and EA complementation occurs, restoring β-Gal activity, which was measured using chemiluminescent Detection Reagents.
The GPR35 cell line was expanded from frozen stocks and cultured according to standard procedures. Cells were seeded in a total volume of 20 μl into white walled, 384-well microplates and incubated at 37° C. for the appropriate time prior to testing. All of the testings were done in duplicate.
HMO samples were shipped to DiscoverX as concentrated stocks in Phosphate Buffered saline. On the test day, a 5× compound working intermediate was prepared in PBS. Five μl of 5× sample were added to cells and incubated at room temperature for 3 to 5 hours.
Assay signal was generated through a single addition of 12.5 μl (50 v/v %) of PathHunter Detection reagent cocktail, followed by one-hour incubation at room temperature. Microplates were read following signal generation with a PerkinElmer Envision™ instrument for chemiluminescent signal detection. Zaprinast (which is known to be an activator of GPR35) was used as positive control. Dose-responses were generated by iterative 3× dilutions of the highest concentration tested (10 mM).
(In general: Activated receptors often draw arrestin, which recruitment assays turn into a signal.)

This note sets out measurements from patent US20220054515A1, “COMPOSITION AND METHOD FOR PROMOTING INTESTINAL BARRIER HEALING” (Glycom A/S, priority 2018, published 2022).

pEC50: −log10 of the molar value.

T1 sequence (Q9HC97 whole entry): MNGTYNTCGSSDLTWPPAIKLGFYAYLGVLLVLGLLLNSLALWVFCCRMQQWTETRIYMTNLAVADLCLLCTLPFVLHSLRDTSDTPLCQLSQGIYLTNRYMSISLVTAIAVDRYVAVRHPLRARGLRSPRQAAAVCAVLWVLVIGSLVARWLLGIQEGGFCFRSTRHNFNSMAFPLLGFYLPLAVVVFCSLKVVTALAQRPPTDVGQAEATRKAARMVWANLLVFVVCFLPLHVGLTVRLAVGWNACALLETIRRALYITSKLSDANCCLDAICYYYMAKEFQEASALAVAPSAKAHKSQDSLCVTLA

Regarding `CC(=O)N[C@H]1[C@H](O[C@H]2[C@@H](O)[C@@H](CO)O[C@@H](O[C@H]3[C@H](O)[C@@H](O)C(O)O[C@@H]3CO)[C@@H]2O)O[C@H](CO)[C@@H](O[C@@H]2O[C@H](CO)[C@H](O)[C@H](O)[C@H]2O)[C@@H]1O` (mixture of isomers) [LNnT, lacto-N-neotetraose], the “activation of GPR35 (result in words)” value is given as “No activation”.

As for `CC(=O)N[C@H]1[C@H]([C@H](O)[C@H](O)CO)O[C@@](OC[C@H]2O[C@@H](O[C@H]3[C@H](O)[C@@H](O)[C@H](O)O[C@@H]3CO)[C@H](O)[C@@H](O)[C@H]2O)(C(=O)O)C[C@@H]1O` [6′-SL, 6′-sialyllactose], the pEC50 (in general, the EC50 on a negative log10 scale, so that one unit is a factor of ten) is 2.19.

As for `CC(=O)N[C@H]1[C@H](O[C@H]2[C@@H](O)[C@@H](CO)O[C@@H](O[C@H]3[C@H](O)[C@@H](O)C(O)O[C@@H]3CO)[C@@H]2O)O[C@H](CO)[C@@H](O)[C@@H]1O[C@@H]1O[C@H](CO)[C@H](O)[C@H](O)[C@H]1O` (some centres unmarked) [LNT, lacto-N-tetraose], the pEC50 is 2.35.

As to `C[C@@H]1O[C@@H](O[C@H]2[C@H](O[C@H]3[C@H](O[C@@H]4O[C@@H](C)[C@@H](O)[C@@H](O)[C@@H]4O)[C@@H](O)C(O)O[C@@H]3CO)O[C@H](CO)[C@H](O)[C@@H]2O)[C@@H](O)[C@H](O)[C@@H]1O` (some centres unmarked) [DFL, difucosyllactose], the “activation of GPR35 (result in words)” value is “No activation”.

Consider `CC(=O)N[C@H]1[C@H]([C@H](O)[C@H](O)CO)O[C@@](O[C@H]2[C@@H](O)[C@@H](CO)O[C@@H](O[C@H]3[C@H](O)[C@@H](O)C(O)O[C@@H]3CO)[C@@H]2O)(C(=O)O)C[C@@H]1O` (some centres unmarked) [3′-SL, 3′-sialyllactose], for which the “activation of GPR35 (result in words)” value is “No activation”.
